Literature values, collected in patent US8252778B2, “Highly fluorinated oils and surfactants and methods of making and using same” (University of Utah Research Foundation, priority 2006, dated 2012).

Target: sstr2 (Homo sapiens, UniProt P30874)
Sequence (P30874 whole entry, species assumed): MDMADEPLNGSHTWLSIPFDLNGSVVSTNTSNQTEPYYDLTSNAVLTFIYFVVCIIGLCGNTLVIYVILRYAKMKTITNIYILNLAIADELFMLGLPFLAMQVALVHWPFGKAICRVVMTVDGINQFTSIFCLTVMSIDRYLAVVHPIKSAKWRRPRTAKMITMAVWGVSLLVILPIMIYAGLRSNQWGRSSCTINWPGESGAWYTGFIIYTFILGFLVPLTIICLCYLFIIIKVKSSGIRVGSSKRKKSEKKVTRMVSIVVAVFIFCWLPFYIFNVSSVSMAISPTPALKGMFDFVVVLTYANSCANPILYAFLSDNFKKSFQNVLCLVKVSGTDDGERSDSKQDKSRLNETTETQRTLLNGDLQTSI

affinity and specificity for sstr2: high affinity and specificity
Structure (SMILES): C[C@@H](O)[C@@H]1NC(=O)[C@H](CCCCN)NC(=O)[C@@H](Cc2c[nH]c3ccccc23)NC(=O)[C@H](Cc2ccccc2)NC(=O)[C@@H](NC(=O)[C@H](N)Cc2ccccc2)CSSC[C@@H](C(=O)N[C@H](CO)[C@@H](C)O)NC1=O [octreotide, DPhe1-c[Cys2-Phe3-DTrp-4-Lys5-Thr6-Cys7]-Thr8-NH2]
